Columns and labels:
[1] = tested on: Macrophage; assay: Inhibition of cholesterol ester synthesis in mouse macrophages assessed as lipid droplet accumulation; assay type: functional, cell-based
[2] = target: T1, Sterol O-acyltransferase 1 (Mus musculus) (UniProt Q61263); assay: Inhibition of ACAT in mouse liver microsomes at 20 uM; details: Microsome
T1 sequence (whole entry): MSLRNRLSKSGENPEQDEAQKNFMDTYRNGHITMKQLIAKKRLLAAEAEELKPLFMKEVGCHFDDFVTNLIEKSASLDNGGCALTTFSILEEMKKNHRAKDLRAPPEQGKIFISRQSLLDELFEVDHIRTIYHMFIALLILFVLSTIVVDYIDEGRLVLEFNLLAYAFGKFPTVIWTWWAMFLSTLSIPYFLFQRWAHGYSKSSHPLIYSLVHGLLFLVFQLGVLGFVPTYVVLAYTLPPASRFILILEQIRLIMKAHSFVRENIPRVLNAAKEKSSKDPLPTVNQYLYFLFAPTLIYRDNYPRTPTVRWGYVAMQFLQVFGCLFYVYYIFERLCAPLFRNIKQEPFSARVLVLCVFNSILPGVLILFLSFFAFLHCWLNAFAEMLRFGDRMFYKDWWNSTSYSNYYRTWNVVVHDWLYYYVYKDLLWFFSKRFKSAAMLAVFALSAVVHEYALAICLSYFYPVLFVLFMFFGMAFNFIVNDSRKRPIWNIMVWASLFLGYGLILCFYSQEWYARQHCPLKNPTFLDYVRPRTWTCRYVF

Row | SMILES | IC50 [1] | inhibition [2]
1 | CCCC[C@H](C)[C@@H]1CC(=O)N[C@@H](C(c2ccccc2)c2ccccc2)C(=O)N[C@@H](C)C(=O)N[C@H]([C@@H](C)CC)C(=O)O1 | 40 nM | 95%
2 | CCCC[C@H](C)[C@@H]1CC(=O)N[C@@H](C(c2ccccc2)c2ccccc2)C(=O)N[C@@H](C)C(=O)N[C@H](CC(C)C)C(=O)O1 | 80 nM | 83%
3 | CCCC[C@H](C)[C@@H]1CC(=O)N[C@@H](C(c2ccccc2)c2ccccc2)C(=O)N[C@@H](CO)C(=O)N[C@H](Cc2ccccc2)C(=O)O1 | 160 nM | 96%
4 | CCCC[C@H](C)[C@@H]1CC(=O)N[C@H](Cc2ccccc2)C(=O)N[C@@H](CO)C(=O)N[C@H](Cc2ccccc2)C(=O)O1 | 110 nM | 95%
5 | CCCC[C@H](C)[C@@H]1CC(=O)N[C@@H](Cc2ccccc2)C(=O)N[C@@H](C)C(=O)N[C@H]([C@H](C)CC)C(=O)O1 | 1700 nM | 80%
6 | CCCC[C@H](C)[C@@H]1CC(=O)N[C@@H](Cc2ccccc2)C(=O)N[C@@H](CC(N)=O)C(=O)N[C@H](CC(C)C)C(=O)O1 | > 20000 nM | 43%
7 | CCCC[C@H](C)[C@@H]1CC(=O)N[C@@H](C(c2ccccc2)c2ccccc2)C(=O)N[C@@H](C)C(=O)N[C@H]([C@H](C)CC)C(=O)O1 | 20 nM | 88%
8 | CCCC[C@H](C)[C@@H]1CC(=O)N[C@@H](C(c2ccccc2)c2ccccc2)C(=O)N[C@H](C)C(=O)N[C@H]([C@H](C)CC)C(=O)O1 | 20 nM | 97%
9 | CCCC[C@H](C)[C@@H]1CC(=O)N[C@H](Cc2ccccc2)C(=O)N[C@@H](CC(N)=O)C(=O)N[C@H](Cc2ccccc2)C(=O)O1 | > 20000 nM | 8%
10 | CCCC[C@H](C)[C@@H]1CC(=O)N[C@@H](Cc2ccccc2)C(=O)N[C@@H](CO)C(=O)N[C@H](Cc2ccccc2)C(=O)O1 | 9300 nM | 79%
11 | CCCC[C@H](C)[C@@H]1CC(=O)N[C@@H](Cc2ccccc2)C(=O)N[C@H](C)C(=O)N[C@H](Cc2ccccc2)C(=O)O1 | 10000 nM | 94%
12 | CCCC[C@H](C)[C@@H]1CC(=O)N[C@H](Cc2ccccc2)C(=O)N[C@H](C)C(=O)N[C@H](CC(C)C)C(=O)O1 | 1000 nM | 96%
13 | CCCC[C@H](C)[C@@H]1CC(=O)N[C@@H](Cc2ccccc2)C(=O)N[C@H](C)C(=O)N[C@H](CC(C)C)C(=O)O1 | 480 nM | 98%
14 | CCCC[C@H](C)[C@@H]1CC(=O)N[C@@H](C(c2ccccc2)c2ccccc2)C(=O)N[C@@H](CO)C(=O)N[C@H](CC(C)C)C(=O)O1 | > 20000 nM | 70%
15 | CCCC[C@H](C)[C@@H]1CC(=O)N[C@@H](Cc2ccccc2)C(=O)N[C@@H](CC(N)=O)C(=O)N[C@H](Cc2ccccc2)C(=O)O1 | > 20000 nM | 11%
16 | CCCC[C@H](C)[C@@H]1CC(=O)N[C@H](Cc2ccccc2)C(=O)N[C@H](C)C(=O)N[C@H]([C@@H](C)CC)C(=O)O1 | 900 nM | 99%
17 | CCCC[C@H](C)[C@@H]1CC(=O)N[C@@H](C(c2ccccc2)c2ccccc2)C(=O)N[C@H](C)C(=O)N[C@H](CC(C)C)C(=O)O1 | 70 nM | 93%
18 | CCCC[C@H](C)[C@@H]1CC(=O)N[C@@H](C(c2ccccc2)c2ccccc2)C(=O)N[C@@H](CC(N)=O)C(=O)N[C@H](CC(C)C)C(=O)O1 | 2000 nM | 98%
19 | CCCC[C@H](C)[C@@H]1CC(=O)N[C@H](Cc2ccccc2)C(=O)N[C@H](C)C(=O)N[C@H]([C@H](C)CC)C(=O)O1 | 2500 nM | 91%

Row | SMILES | IC50 [1] | inhibition [2]
20 | CCCC[C@H](C)[C@@H]1CC(=O)N[C@@H](C(c2ccccc2)c2ccccc2)C(=O)N[C@H](C)C(=O)N[C@H](Cc2ccccc2)C(=O)O1 | 240 nM | 75%
21 | CCCC[C@H](C)[C@@H]1CC(=O)N[C@H](Cc2ccccc2)C(=O)N[C@@H](CO)C(=O)N[C@H](CC(C)C)C(=O)O1 | > 20000 nM | 40%
22 | CCCC[C@H](C)[C@@H]1CC(=O)N[C@H](Cc2ccccc2)C(=O)N[C@@H](C)C(=O)N[C@H]([C@H](C)CC)C(=O)O1 | > 20000 nM | 70%
23 | CCCC[C@H](C)[C@@H]1CC(=O)N[C@@H](C(c2ccccc2)c2ccccc2)C(=O)N[C@@H](CC(N)=O)C(=O)N[C@H](Cc2ccccc2)C(=O)O1 | 900 nM | 97%
24 | CCCC[C@H](C)[C@@H]1CC(=O)N[C@H](Cc2ccccc2)C(=O)N[C@@H](C)C(=O)N[C@H]([C@@H](C)CC)C(=O)O1 | > 20000 nM | 20%
25 | CCCC[C@H](C)[C@@H]1CC(=O)N[C@@H](C(c2ccccc2)c2ccccc2)C(=O)N[C@H](C)C(=O)N[C@H]([C@@H](C)CC)C(=O)O1 | 20 nM | 91%
26 | CCCC[C@H](C)[C@@H]1CC(=O)N[C@@H](Cc2ccccc2)C(=O)N[C@H](C)C(=O)N[C@H]([C@@H](C)CC)C(=O)O1 | 800 nM | 94%
27 | CCCC[C@H](C)[C@@H]1CC(=O)N[C@H](Cc2ccccc2)C(=O)N[C@@H](CC(N)=O)C(=O)N[C@H](C[C@@H](C)CC)C(=O)O1 | > 20000 nM | –
28 | CCCC[C@H](C)[C@@H]1CC(=O)N[C@H](Cc2ccccc2)C(=O)N[C@@H](C)C(=O)N[C@H](CC(C)C)C(=O)O1 | > 20000 nM | 87%
29 | CCCC[C@H](C)[C@@H]1CC(=O)N[C@@H](C(c2ccccc2)c2ccccc2)C(=O)N[C@@H](C)C(=O)N[C@H](Cc2ccccc2)C(=O)O1 | 80 nM | 71%
30 | CCCC[C@H](C)[C@@H]1CC(=O)N[C@@H](Cc2ccccc2)C(=O)N[C@H](C)C(=O)N[C@H]([C@H](C)CC)C(=O)O1 | 650 nM | 96%
31 | CCCC[C@H](C)[C@@H]1CC(=O)N[C@@H](Cc2ccccc2)C(=O)N[C@@H](C)C(=O)N[C@H](CC(C)C)C(=O)O1 [BEAUVERIOLIDE I] | 600 nM | 95%
32 | CCCC[C@H](C)[C@@H]1CC(=O)N[C@@H](Cc2ccccc2)C(=O)N[C@@H](CO)C(=O)N[C@H](CC(C)C)C(=O)O1 | 12300 nM | 93%
33 | CCCC[C@H](C)[C@@H]1CC(=O)N[C@H](Cc2ccccc2)C(=O)N[C@H](C)C(=O)N[C@H](Cc2ccccc2)C(=O)O1 | 300 nM | 60%
34 | CCCC[C@H](C)[C@@H]1CC(=O)N[C@H](Cc2ccccc2)C(=O)N[C@@H](C)C(=O)N[C@H](Cc2ccccc2)C(=O)O1 | > 20000 nM | 47%
35 | CCCC[C@H](C)[C@@H]1CC(=O)N[C@@H](Cc2ccccc2)C(=O)N[C@@H](C)C(=O)N[C@H](Cc2ccccc2)C(=O)O1 | 7500 nM | 76%
36 | CCCC[C@H](C)[C@@H]1CC(=O)N[C@@H](Cc2ccccc2)C(=O)N[C@@H](C)C(=O)N[C@H]([C@@H](C)CC)C(=O)O1 [BEAUVERIOLIDE III] | 400 nM | 91%
37 | CCCC[C@H](C)[C@@H]1CC(=O)N[C@H](Cc2ccccc2)C(=O)N[C@@H](CC(N)=O)C(=O)N[C@H](CC(C)C)C(=O)O1 | > 20000 nM | 4%

Reference: ChEMBL document CHEMBL1155850, “Synthesis and biological evaluation of a focused library of beauveriolides” (Bioorg Med Chem Lett, 2008)
